Data taken from patent US9474790B2, “Stable, protracted GLP-1/glucagon receptor co-agonists for medical use” (Novo Nordisk A/S, priority 2013, dated 2016).
Numbered stars: 1 amine (or outer) side, 2 acyl side, 3 side chain; on linkers, the order of the positions; unused ones are H or OH. Bridge positions count the residues as written; N and C are the ends. Square brackets hold non-standard residues; d marks the D form. Side chains are listed from the residue outwards. Peptide text beside a SMILES is read from it. I, II: the chains in the order shown. * marks the point of attachment. C18 diacid = O=C(O)CCCCCCCCCCCCCCCCC(=O)*; γGlu = O=C(O)[C@H](CCC(=O)[*:2])N[*:1]; Ac4c = NC1(C(=O)O)CCC1; AEEA = NCCOCCOCC(=O)O; Aib = CC(C)(N)C(=O)O

Each compound was assayed against T1, human glucagon receptor (Homo sapiens, UniProt P47871) (assay: Glucagon receptor binding, 125I-glucagon displacement SPA on isolated membranes). Details: displacement of 125I-glucagon from membranes; read-out: IC50 GlucR.
T1 construct: expressed in transfected cells; host or cells: BHK cells (parent BHK570, CRE luciferase clone BHK/KZ10-20-48), clone pLJ6'-4-25
T1 sequence (P47871 26-477): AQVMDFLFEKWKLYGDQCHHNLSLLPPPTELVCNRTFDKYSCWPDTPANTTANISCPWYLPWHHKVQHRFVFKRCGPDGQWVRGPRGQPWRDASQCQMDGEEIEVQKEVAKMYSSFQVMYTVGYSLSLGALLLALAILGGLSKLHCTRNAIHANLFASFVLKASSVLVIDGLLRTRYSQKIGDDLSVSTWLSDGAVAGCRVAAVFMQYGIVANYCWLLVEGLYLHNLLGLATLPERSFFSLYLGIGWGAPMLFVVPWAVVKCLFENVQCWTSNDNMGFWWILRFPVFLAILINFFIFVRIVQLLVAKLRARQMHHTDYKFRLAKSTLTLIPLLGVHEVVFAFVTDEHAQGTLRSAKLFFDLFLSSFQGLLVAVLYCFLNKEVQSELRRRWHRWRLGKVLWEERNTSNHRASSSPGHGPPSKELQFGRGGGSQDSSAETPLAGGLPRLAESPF
In short: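 Displacement IC50 derived by non-linear regression of SPA counts after 2 h, 25 °C incubation of compound with [125I]-glucagon (480 pM solution, 25 μl) and membranes of hGCGR-transfected BHK cells. Buffer was HEPES pH 7.4 with ovalbumin; serum albumin was held at 0.001% max or 0.2% final.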
CC(C)C[C@H](NC(=O)[C@H](Cc1ccc(O)cc1)NC(=O)[C@H](CCCCN)NC(=O)[C@H](CO)NC(=O)[C@H](CC(C)C)NC(=O)[C@H](CC(=O)O)NC(=O)[C@H](CO)NC(=O)[C@@H](NC(=O)[C@H](Cc1ccccc1)NC(=O)[C@@H](NC(=O)CNC(=O)[C@H](CCC(N)=O)NC(=O)C1(NC(=O)[C@@H](N)Cc2c[nH]cn2)CCC1)[C@@H](C)O)[C@@H](C)O)C(=O)N[C@@H](CCC(=O)O)C(=O)N[C@@H](CO)C(=O)N[C@@H](CCCCN)C(=O)N[C@@H](CCCNC(=N)N)C(=O)N[C@@H](C)C(=O)N[C@@H](CCCNC(=N)N)C(=O)N[C@@H](CCC(=O)O)C(=O)N[C@@H](Cc1ccccc1)C(=O)N[C@H](C(=O)N[C@@H](CCC(N)=O)C(=O)N[C@@H](Cc1c[nH]c2ccccc12)C(=O)N[C@@H](CC(C)C)C(=O)N[C@@H](CC(C)C)C(=O)N[C@@H](CCCCNC(=O)CNC(=O)[C@H](CO)NC(=O)[C@H](CCC(=O)O)NC(=O)CNC(=O)[C@H](CO)NC(=O)CC[C@H](NC(=O)CC[C@H](NC(=O)CCCCCCCCCCCCCCCCC(=O)O)C(=O)O)C(=O)O)C(=O)N[C@H](C(N)=O)[C@@H](C)O)C(C)C [Example 36, N^ε28-[2-[[(2S)-2-[[(2S)-4-carboxy-2-[[2-[[(2S)-2-[[(4S)-4-carboxy-4-[[(4S)-4-carboxy-4-(17-carboxyheptadecanoylamino)butanoyl]amino]butanoyl]amino]-3-hydroxypropanoyl]amino]acetyl]amino]butanoyl]amino]-3-hydroxypropanoyl]amino]acetyl]-[Acb2,Leu10,Glu15,Lys17, Arg20,Glu21,Leu27,Lys28]-Glucagon amide] (I: H-H[Ac4c]QGTFTSDLSKYLESKRAREFVQWLLKT-NH2 / II: {C18 diacid-γGlu-γGlu}-SGESG; amide I:28-II:C; N-terminus assumed) was tested, and the IC50 was 0.6 nM.
Work on CC(C)C[C@H](NC(=O)[C@H](Cc1ccc(O)cc1)NC(=O)[C@H](CCCCN)NC(=O)[C@H](CO)NC(=O)[C@H](CC(C)C)NC(=O)[C@H](CC(=O)O)NC(=O)[C@H](CO)NC(=O)[C@@H](NC(=O)[C@H](Cc1ccccc1)NC(=O)[C@@H](NC(=O)CNC(=O)[C@H](CCC(N)=O)NC(=O)C(C)(C)NC(=O)[C@@H](N)Cc1c[nH]cn1)[C@@H](C)O)[C@@H](C)O)C(=O)N[C@@H](CC(=O)O)C(=O)N[C@@H](C)C(=O)N[C@@H](CCCNC(=N)N)C(=O)N[C@@H](CCCNC(=N)N)C(=O)N[C@@H](C)C(=O)N[C@@H](CCCNC(=N)N)C(=O)N[C@@H](CCC(=O)O)C(=O)N[C@@H](Cc1ccccc1)C(=O)N[C@H](C(=O)N[C@@H](CCC(N)=O)C(=O)N[C@@H](Cc1c[nH]c2ccccc12)C(=O)N[C@@H](CC(C)C)C(=O)N[C@@H](CC(C)C)C(=O)N[C@@H](CC(N)=O)C(=O)N[C@@H](CCCCNC(=O)CC[C@H](NC(=O)CC[C@H](NC(=O)COCCOCCNC(=O)CC[C@H](NC(=O)CCCCCCCCCCCCCCCCC(=O)O)C(=O)O)C(=O)O)C(=O)O)C(N)=O)C(C)C [Example 39, N^ε29-[(4S)-4-carboxy-4-[[(4S)-4-carboxy-4-[[2-[2-[2-[[(4S)-4-carboxy-4-(17-carboxyheptadecanoylamino)butanoyl]amino]ethoxy]ethoxy]acetyl]amino]butanoyl]amino]butanoyl]-[Aib2,Leu10,Ala16,Arg20,Glu21,Leu27,Lys29]-Glucagon amide] (H-H[Aib]QGTFTSDLSKYLDARRAREFVQWLLNK([γGlu-γGlu-AEEA-γGlu-C18 diacid])-NH2; N-terminus assumed) yielded an IC50 of 5.6 nM.
With CC(C)C[C@H](NC(=O)[C@H](Cc1ccc(O)cc1)NC(=O)[C@H](CCCCN)NC(=O)[C@H](CO)NC(=O)[C@H](CC(C)C)NC(=O)[C@H](CC(=O)O)NC(=O)[C@H](CO)NC(=O)[C@@H](NC(=O)[C@H](Cc1ccccc1)NC(=O)[C@@H](NC(=O)CNC(=O)[C@H](CCC(N)=O)NC(=O)C(C)(C)NC(=O)[C@@H](N)Cc1c[nH]cn1)[C@@H](C)O)[C@@H](C)O)C(=O)N[C@@H](CCC(=O)O)C(=O)N[C@@H](CO)C(=O)N[C@@H](CCCNC(=N)N)C(=O)N[C@@H](CCCNC(=N)N)C(=O)N[C@@H](C)C(=O)N[C@@H](CCCNC(=N)N)C(=O)N[C@@H](CCC(=O)O)C(=O)N[C@@H](Cc1ccccc1)C(=O)N[C@H](C(=O)N[C@@H](CCC(N)=O)C(=O)N[C@@H](Cc1c[nH]c2ccccc12)C(=O)N[C@@H](CC(C)C)C(=O)N[C@@H](CC(C)C)C(=O)N[C@@H](CCCCNC(=O)CC[C@H](NC(=O)CC[C@H](NC(=O)CC[C@H](NC(=O)CCCCCCCCCCCCCCCCC(=O)O)C(=O)O)C(=O)O)C(=O)O)C(=O)N[C@H](C(N)=O)[C@@H](C)O)C(C)C [Example 41, N^ε28-[(4S)-4-carboxy-4-[[(4S)-4-carboxy-4-[[(4S)-4-carboxy-4-(17-carboxyheptadecanoylamino)butanoyl]amino]butanoyl]amino]butanoyl]-[Aib2,Leu10,Glu15, Arg20,Glu21,Leu27,Lys28]-Glucagon amide] (H-H[Aib]QGTFTSDLSKYLESRRAREFVQWLLK([γGlu-γGlu-γGlu-C18 diacid])T-NH2; N-terminus assumed) the IC50 was 1.2 nM.
CC(C)C[C@H](NC(=O)[C@H](Cc1ccc(O)cc1)NC(=O)[C@H](CCCCN)NC(=O)[C@H](CO)NC(=O)[C@H](CC(C)C)NC(=O)[C@H](CC(=O)O)NC(=O)[C@H](CO)NC(=O)[C@@H](NC(=O)[C@H](Cc1ccccc1)NC(=O)[C@@H](NC(=O)CNC(=O)[C@H](CCC(N)=O)NC(=O)C(C)(C)NC(=O)[C@@H](N)Cc1c[nH]cn1)[C@@H](C)O)[C@@H](C)O)C(=O)N[C@@H](CCC(=O)O)C(=O)N[C@@H](CO)C(=O)N[C@@H](CCCNC(=N)N)C(=O)N[C@@H](CCCNC(=N)N)C(=O)N[C@@H](C)C(=O)N[C@@H](CCCNC(=N)N)C(=O)N[C@@H](CCC(=O)O)C(=O)N[C@@H](Cc1ccccc1)C(=O)N[C@H](C(=O)N[C@@H](CCC(N)=O)C(=O)N[C@@H](Cc1c[nH]c2ccccc12)C(=O)N[C@@H](CC(C)C)C(=O)N[C@@H](CC(C)C)C(=O)N[C@@H](CCCCNC(=O)COCCOCCNC(=O)COCCOCCNC(=O)CC[C@H](NC(=O)CC[C@H](NC(=O)CC[C@H](NC(=O)CCCCCCCCCCCCCCCCC(=O)O)C(=O)O)C(=O)O)C(=O)O)C(=O)N[C@H](C(N)=O)[C@@H](C)O)C(C)C [Example 42, N^ε28-[2-[2-[2-[[2-[2-[2-[[(4S)-4-carboxy-4-[[(4S)-4-carboxy-4-[[(4S)-4-carboxy-4-(17-carboxyheptadecanoylamino)butanoyl]amino]butanoyl]amino]butanoyl]amino]ethoxy]ethoxy]acetyl]amino]ethoxy]ethoxy]acetyl]-[Aib2,Leu10,Glu15,Arg20,Glu21,Leu27,Lys28]-Glucagon amide] (H-H[Aib]QGTFTSDLSKYLESRRAREFVQWLLK([AEEA-AEEA-γGlu-γGlu-γGlu-C18 diacid])T-NH2; N-terminus assumed) gave an IC50 of 38.2 nM.
CC(C)C[C@H](NC(=O)[C@H](Cc1ccc(O)cc1)NC(=O)[C@H](CCCCN)NC(=O)[C@H](CO)NC(=O)[C@H](CC(C)C)NC(=O)[C@H](CC(=O)O)NC(=O)[C@H](CO)NC(=O)[C@@H](NC(=O)[C@H](Cc1ccccc1)NC(=O)[C@@H](NC(=O)CNC(=O)[C@H](CCC(N)=O)NC(=O)C(C)(C)NC(=O)[C@@H](N)Cc1c[nH]cn1)[C@@H](C)O)[C@@H](C)O)C(=O)N[C@@H](CC(=O)O)C(=O)N[C@@H](C)C(=O)N[C@@H](CCCNC(=N)N)C(=O)N[C@@H](CCCNC(=N)N)C(=O)N[C@@H](C)C(=O)N[C@@H](CCCNC(=N)N)C(=O)N[C@@H](CCC(=O)O)C(=O)N[C@@H](Cc1ccccc1)C(=O)N[C@H](C(=O)N[C@@H](CCC(N)=O)C(=O)N[C@@H](Cc1c[nH]c2ccccc12)C(=O)N[C@@H](CC(C)C)C(=O)N[C@@H](CC(C)C)C(=O)N[C@@H](CCCCNC(=O)CC[C@H](NC(=O)CC[C@H](NC(=O)COCCOCCNC(=O)COCCOCCNC(=O)CC[C@H](NC(=O)CCCCCCCCCCCCCCCCC(=O)O)C(=O)O)C(=O)O)C(=O)O)C(=O)N[C@H](C(N)=O)[C@@H](C)O)C(C)C [Example 43, N^ε28-[(4S)-4-carboxy-4-[[(4S)-4-carboxy-4-[[2-[2-[2-[[2-[2-[2-[[(4S)-4-carboxy-4-(17-carboxyheptadecanoylamino)butanoyl]amino]ethoxy]ethoxy]acetyl]amino]ethoxy]ethoxy]acetyl]amino]butanoyl]amino]butanoyl]-[Aib2,Leu10,Ala16,Arg20,Glu21,Leu27,Lys28]-Glucagon amide] (H-H[Aib]QGTFTSDLSKYLDARRAREFVQWLLK([γGlu-γGlu-AEEA-AEEA-γGlu-C18 diacid])T-NH2; N-terminus assumed) gave an IC50 of 5.6 nM.
Work on CC(C)C[C@H](NC(=O)[C@H](Cc1ccc(O)cc1)NC(=O)[C@H](CCCCN)NC(=O)[C@H](CO)NC(=O)[C@H](CC(C)C)NC(=O)[C@H](CC(=O)O)NC(=O)[C@H](CO)NC(=O)[C@@H](NC(=O)[C@H](Cc1ccccc1)NC(=O)[C@@H](NC(=O)CNC(=O)[C@H](CCC(N)=O)NC(=O)C1(NC(=O)[C@@H](N)Cc2c[nH]cn2)CCC1)[C@@H](C)O)[C@@H](C)O)C(=O)N[C@@H](CCC(=O)O)C(=O)N[C@@H](CO)C(=O)N[C@@H](CCCNC(=N)N)C(=O)N[C@@H](CCCNC(=N)N)C(=O)N[C@@H](C)C(=O)N[C@@H](CCCNC(=N)N)C(=O)N[C@@H](CCC(=O)O)C(=O)N[C@@H](Cc1ccccc1)C(=O)N[C@H](C(=O)N[C@@H](CCC(N)=O)C(=O)N[C@@H](Cc1c[nH]c2ccccc12)C(=O)N[C@@H](CC(C)C)C(=O)N[C@@H](CC(C)C)C(=O)N[C@@H](CCCCNC(=O)CC[C@H](NC(=O)CC[C@H](NC(=O)COCCOCCNC(=O)COCCOCCNC(=O)CC[C@H](NC(=O)CCCCCCCCCCCCCCCCC(=O)O)C(=O)O)C(=O)O)C(=O)O)C(=O)N[C@H](C(N)=O)[C@@H](C)O)C(C)C [Example 44, N^ε28-[(4S)-4-carboxy-4-[[(4S)-4-carboxy-4-[[2-[2-[2-[[2-[2-[2-[[(4S)-4-carboxy-4-(17-carboxyheptadecanoylamino)butanoyl]amino]ethoxy]ethoxy]acetyl]amino]ethoxy]ethoxy]acetyl]amino]butanoyl]amino]butanoyl]-[Acb2,Leu10,Glu15,Arg20,Glu21,Leu27,Lys28]-Glucagon amide] (H-H[Ac4c]QGTFTSDLSKYLESRRAREFVQWLLK([γGlu-γGlu-AEEA-AEEA-γGlu-C18 diacid])T-NH2; N-terminus assumed) yielded an IC50 of 7.2 nM.
